Drawing on patent US20250282768A1 (Janssen Pharmaceutica NV, priority 2022, published 2025), this text covers IC50 for 25 compounds.

Each structure is given as a SMILES string.

The test deals with p-IKKa levels in L363 (NIK translocated multiple myeloma) cells. Kind of test: Assay 2: Effect of compounds on p-IKKa levels in L363 (NIK translocated multiple myeloma) cells. Format: cell-based. The settings on record: Homo sapiens, L-363, 6 h, read-out: Assay 2 IC50 (nM), p-IKKa (Ser 176/180) in BAFF stimulated L363 cells with MG132, 6 h; average if tested more than once. The gist of the method: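 Read-out is p-IKKa Ser176/180 by AlphaLISA SureFire in lysates. Cells were BAFF-primed (250 ng/ml) overnight or left unstimulated, then exposed 6 h at 37 °C to compound with MG132 (10 μM), 0.3% DMSO. IC50 from sigmoidal curve fit, normalized between stimulated and unstimulated controls.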
For the compound `COc1cc(-c2cc([C@]3(O)CCN(C)C3=O)on2)nc(-c2ccnc(Nc3cnn(C)c3)n2)c1` [Example 145, (R)-3-Hydroxy-3-(3-(4-methoxy-6-(2-((1-methyl-1H-pyrazol-4-yl)amino)pyrimidin-4-yl)pyridin-2-yl)isoxazol-5-yl)-1-methylpyrrolidin-2-one], the IC50 is less than 50 nM.

Take `COc1cc(-c2cc([C@]3(O)CCN(C)C3=O)on2)nc(-c2ccnc(Nc3ccn(C)n3)n2)c1` [Example 146, (R)-3-Hydroxy-3-(3-(4-methoxy-6-(2-((1-methyl-1H-pyrazol-3-yl)amino)pyrimidin-4-yl)pyridin-2-yl)isoxazol-5-yl)-1-methylpyrrolidin-2-one]: the IC50 is less than 50 nM.

For `CC(Nc1nccc(-c2cccc(-c3cc([C@]4(O)CCN(C)C4=O)on3)n2)n1)c1cc[nH]n1` (stereo partly drawn) [Example 147, (3R)-3-(3-(6-(2-((1-(1H-Pyrazol-3-yl)ethyl)amino)pyrimidin-4-yl)pyridin-2-yl)isoxazol-5-yl)-3-hydroxy-1-methylpyrrolidin-2-one], the IC50 is 50 to 500 nM.

With `C[C@@H](O)[C@@H](Nc1nccc(-c2cccc(-c3cc([C@]4(O)CCN(C)C4=O)on3)n2)n1)c1ccccc1` [Example 152, (R)-3-Hydroxy-3-(3-(6-(2-(((1 S,2R)-2-hydroxy-1-phenylpropyl)amino)pyrimidin-4-yl)pyridin-2-yl)isoxazol-5-yl)-1-methylpyrrolidin-2-one], the IC50 was 50 to 500 nM.

Regarding `C[C@H](Nc1nccc(-c2cccc(-c3cc([C@]4(O)CCN(C)C4=O)on3)n2)n1)c1ccc2nccn2c1` [Example 153, (R)-3-Hydroxy-3-(3-(6-(2-(((S)-1-(imidazo[1,2-a]pyridin-6-yl)ethyl)amino)pyrimidin-4-yl)pyridin-2-yl)isoxazol-5-yl)-1-methylpyrrolidin-2-one], the IC50 is greater than 500 nM.

As for `C[C@H](O)[C@@H](Nc1nccc(-c2cccc(-c3cc([C@]4(O)CCN(C)C4=O)on3)n2)n1)c1ccccc1` [Example 158, (R)-3-Hydroxy-3-(3-(6-(2-(((1 S,2S)-2-hydroxy-1-phenylpropyl)amino)pyrimidin-4-yl)pyridin-2-yl)isoxazol-5-yl)-1-methylpyrrolidin-2-one], the IC50 is greater than 500 nM.

Turning to `C[C@@H](O)[C@H](Nc1nccc(-c2cccc(-c3cc([C@]4(O)CCN(C)C4=O)on3)n2)n1)c1ccccc1` [Example 159, (R)-3-Hydroxy-3-(3-(6-(2-(((1R,2R)-2-hydroxy-1-phenylpropyl)amino)pyrimidin-4-yl)pyridin-2-yl)isoxazol-5-yl)-1-methylpyrrolidin-2-one], the IC50 lay within 50 to 500 nM.

Take `C[C@@H](Nc1nccc(-c2cccc(-c3cc([C@]4(O)CCN(C)C4=O)on3)n2)n1)C(=O)N1CCC1` [Example 167, (R)-3-(3-(6-(2-(((R)-1-(Azetidin-1-yl)-1-oxopropan-2-yl)amino)pyrimidin-4-yl)pyridin-2-yl)isoxazol-5-yl)-3-hydroxy-1-methylpyrrolidin-2-one]: the IC50 is greater than 500 nM.

As to `C[C@H](Nc1nccc(-c2cccc(-c3cc([C@]4(O)CCN(C)C4=O)on3)n2)n1)C(=O)N1CCC1` [Example 168, (R)-3-(3-(6-(2-(((S)-1-(Azetidin-1-yl)-1-oxopropan-2-yl)amino)pyrimidin-4-yl)pyridin-2-yl)isoxazol-5-yl)-3-hydroxy-1-methylpyrrolidin-2-one], the IC50 fell in the range of 50 to 500 nM.

For the compound `C[C@@H](Nc1nccc(-c2cccc(-c3cc([C@]4(O)CCN(C)C4=O)on3)n2)n1)C(=O)N1CC(F)(F)C1` [Example 169, (R)-3-(3-(6-(2-(((R)-1-(3,3-Difluoroazetidin-1-yl)-1-oxopropan-2-yl)amino)pyrimidin-4-yl)pyridin-2-yl)isoxazol-5-yl)-3-hydroxy-1-methylpyrrolidin-2-one], the IC50 is greater than 500 nM.

With `C[C@H](Nc1nccc(-c2cccc(-c3cc([C@]4(O)CCN(C)C4=O)on3)n2)n1)C(=O)N1CC(F)(F)C1` [Example 170, (R)-3-(3-(6-(2-(((S)-1-(3,3-Difluoroazetidin-1-yl)-1-oxopropan-2-yl)amino)pyrimidin-4-yl)pyridin-2-yl)isoxazol-5-yl)-3-hydroxy-1-methylpyrrolidin-2-one], the IC50 was in the range of 50 to 500 nM.

Regarding `C[C@@H](Nc1nccc(-c2cccc(-c3cc([C@]4(O)CCN(C)C4=O)on3)n2)n1)C(=O)N1CC(C(F)(F)F)C1` [Example 171, (R)-3-Hydroxy-1-methyl-3-(3-(6-(2-(((R)-1-oxo-1-(3-(trifluoromethyl)azetidin-1-yl)propan-2-yl)amino)pyrimidin-4-yl)pyridin-2-yl)isoxazol-5-yl)pyrrolidin-2-one], the IC50 lay in the range of 50 to 500 nM.

For `C[C@H](Nc1nccc(-c2cccc(-c3cc([C@]4(O)CCN(C)C4=O)on3)n2)n1)C(=O)N1CC(C(F)(F)F)C1` [Example 172, (R)-3-Hydroxy-1-methyl-3-(3-(6-(2-(((S)-1-oxo-1-(3-(trifluoromethyl)azetidin-1-yl)propan-2-yl)amino)pyrimidin-4-yl)pyridin-2-yl)isoxazol-5-yl)pyrrolidin-2-one], the IC50 lay within 50 to 500 nM.

Take `C[C@@H](Nc1nccc(-c2cccc(-c3cc([C@]4(O)CCN(C)C4=O)on3)n2)n1)C(=O)N1CCC(F)(F)C1` [Example 173, (R)-3-(3-(6-(2-(((R)-1-(3,3-Difluoropyrrolidin-1-yl)-1-oxopropan-2-yl)amino)pyrimidin-4-yl)pyridin-2-yl)isoxazol-5-yl)-3-hydroxy-1-methylpyrrolidin-2-one]: the IC50 is greater than 500 nM.

As to `C[C@H](Nc1nccc(-c2cccc(-c3cc([C@]4(O)CCN(C)C4=O)on3)n2)n1)C(=O)N1CCC(F)(F)C1` [Example 174, (R)-3-(3-(6-(2-(((S)-1-(3,3-Difluoropyrrolidin-1-yl)-1-oxopropan-2-yl)amino)pyrimidin-4-yl)pyridin-2-yl)isoxazol-5-yl)-3-hydroxy-1-methylpyrrolidin-2-one], the IC50 was 50 to 500 nM.

Turning to `C[C@@H](Nc1nccc(-c2cccc(-c3cc([C@]4(O)CCN(C)C4=O)on3)n2)n1)C(=O)N(C)C` [Example 175, (R)-2-((4-(6-(5-((R)-3-Hydroxy-1-methyl-2-oxopyrrolidin-3-yl)isoxazol-3-yl)pyridin-2-yl)pyrimidin-2-yl)amino)-N,N-dimethylpropanamide], the IC50 was greater than 500 nM.

`C[C@H](Nc1nccc(-c2cccc(-c3cc([C@]4(O)CCN(C)C4=O)on3)n2)n1)C(=O)N(C)C` [Example 176, (S)-2-((4-(6-(5-((R)-3-Hydroxy-1-methyl-2-oxopyrrolidin-3-yl)isoxazol-3-yl)pyridin-2-yl)pyrimidin-2-yl)amino)-N,N-dimethylpropanamide]: the IC50 lay in the range of 50 to 500 nM.

On to `C[C@@H](Nc1nccc(-c2cccc(-c3cc([C@]4(O)CCN(C)C4=O)on3)n2)n1)C(=O)N1CC(C)(F)C1` [Example 177, (R)-3-(3-(6-(2-(((R)-1-(3-Fluoro-3-methylazetidin-1-yl)-1-oxopropan-2-yl)amino)pyrimidin-4-yl)pyridin-2-yl)isoxazol-5-yl)-3-hydroxy-1-methylpyrrolidin-2-one], for which the IC50 is greater than 500 nM.

`C[C@H](Nc1nccc(-c2cccc(-c3cc([C@]4(O)CCN(C)C4=O)on3)n2)n1)C(=O)N1CC(C)(F)C1` [Example 178, (R)-3-(3-(6-(2-(((S)-1-(3-Fluoro-3-methylazetidin-1-yl)-1-oxopropan-2-yl)amino)pyrimidin-4-yl)pyridin-2-yl)isoxazol-5-yl)-3-hydroxy-1-methylpyrrolidin-2-one]: the IC50 was 50 to 500 nM.

As for `C[C@@H](Nc1nccc(-c2cccc(-c3cc([C@]4(O)CCN(C)C4=O)on3)n2)n1)C(=O)N1CCCCC1` [Example 179, (R)-3-Hydroxy-1-methyl-3-(3-(6-(2-(((R)-1-oxo-1-(piperidin-1-yl)propan-2-yl)amino)pyrimidin-4-yl)pyridin-2-yl)isoxazol-5-yl)pyrrolidin-2-one], the IC50 was 50 to 500 nM.

Turning to `C[C@H](Nc1nccc(-c2cccc(-c3cc([C@]4(O)CCN(C)C4=O)on3)n2)n1)C(=O)N1CCCCC1` [Example 180, (R)-3-Hydroxy-1-methyl-3-(3-(6-(2-(((S)-1-oxo-1-(piperidin-1-yl)propan-2-yl)amino)pyrimidin-4-yl)pyridin-2-yl)isoxazol-5-yl)pyrrolidin-2-one], the IC50 was 50 to 500 nM.

In the case of `C[C@H](Nc1nccc(-c2cccc(-c3cc([C@]4(O)CCN(C)C4=O)on3)n2)n1)C(=O)N(C)c1ccccc1` [Example 181, (S)-2-((4-(6-(5-((R)-3-Hydroxy-1-methyl-2-oxopyrrolidin-3-yl)isoxazol-3-yl)pyridin-2-yl)pyrimidin-2-yl)amino)-N-methyl-N-phenylpropanamide], the IC50 was greater than 500 nM.

Regarding `C[C@H](Nc1nccc(-c2cccc(-c3cc([C@]4(O)CCN(C)C4=O)on3)n2)n1)C(N)=O` [Example 182, (S)-2-((4-(6-(5-((R)-3-Hydroxy-1-methyl-2-oxopyrrolidin-3-yl)isoxazol-3-yl)pyridin-2-yl)pyrimidin-2-yl)amino)propanamide], the IC50 lay within 50 to 500 nM.

Consider `CNC(=O)[C@H](C)Nc1nccc(-c2cccc(-c3cc([C@]4(O)CCN(C)C4=O)on3)n2)n1` [Example 183, (S)-2-((4-(6-(5-((R)-3-Hydroxy-1-methyl-2-oxopyrrolidin-3-yl)isoxazol-3-yl)pyridin-2-yl)pyrimidin-2-yl)amino)-N-methylpropanamide], for which the IC50 lay in the range of 50 to 500 nM.

As for `C[C@H](Nc1nccc(-c2cccc(-c3cc([C@]4(O)CCN(C)C4=O)on3)n2)n1)C(=O)N1CCCC1` [Example 184, (R)-3-Hydroxy-1-methyl-3-(3-(6-(2-(((S)-1-oxo-1-(pyrrolidin-1-yl)propan-2-yl)amino)pyrimidin-4-yl)pyridin-2-yl)isoxazol-5-yl)pyrrolidin-2-one], the IC50 lay in the range of 50 to 500 nM.
